The source of these data is the supplement of paper PMC11061612.

Compound in experiment [1]: C1CN(CCC1(C(=O)N[C@@H](CCO)C2=CC=C(C=C2)Cl)N)C3=NC=NC4=C3C=CN4 [Capivasertib]
The essentials: (§1)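 Cancer cell lines were dosed for 72 hours (final DMSO typically 0.2%) after 24 hours at 37°C and 5% CO2 in 1536-well plates containing 7.5 μl DMEM/F12 or RPMI with 10% FBS. Viability came from CellTiter-Glo 2.0 luminescence, scaled between blank-well and DMSO-well means, and dose responses were fitted to a two-parameter logistic curve with a non-linear mixed effects model. The single-agent IC50 was obtained from this fit.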

Compound in experiment [2]: C=CCn1c(=O)c2cnc(Nc3ccc(N4CCN(C)CC4)cc3)nc2n1-c1cccc(C(C)(C)O)n1 [AZD1775]
The essentials: as §1

Compound in experiment [3]: CC(=O)Nc1cccc(-n2c(=O)n(C3CC3)c(=O)c3c(Nc4ccc(I)cc4F)n(C)c(=O)c(C)c32)c1 [Trametinib]
Conditions: max 1 µM. The essentials: as §1

Compound in experiment [4]: CC(=O)c1c(C)c2cnc(Nc3ccc(N4CCNCC4)cn3)nc2n(C2CCCC2)c1=O [Palbociclib]
As to conditions: max 10 µM. The procedure, abridged:
as §1

Compound in experiment [5]: CC(C)n1c(=O)n(C)c2cnc3cc(F)c(-c4ccc(OCCCN5CCCCC5)nc4)cc3c21 [AZD1390]
Conditions: max 0.3 µM. The procedure, abridged: as §1

Compound in experiment [6]: CC1(C)CCC(CN2CCN(c3ccc(C(=O)NS(=O)(=O)c4ccc(NCC5CCOCC5)c([N+](=O)[O-])c4)c(Oc4cnc5[nH]ccc5c4)c3)CC2)=C(c2ccc(Cl)cc2)C1 [Venetoclax]
As to conditions: max 1 µM. The procedure, abridged:
as §1

Compound in experiment [7]: CC1=C(C(=CC=C1)Cl)NC(=O)C2=CN=C(S2)NC3=CC(=NC(=N3)C)N4CCN(CC4)CCO [Dasatinib]
Conditions: max 2 µM. The procedure, abridged:
as §1

Compound in experiment [8]: CC1=CN2[C@@H](C1)C=NC3=CC(=C(C=C3C2=O)OC)OCCCCCOC4=C(C=C5C(=C4)N=C[C@@H]6CC(=CN6C5=O)C)OC [SG3199]
Conditions: max 0.001 µM. The essentials: as §1

Compound in experiment [9]: CCN(CCO)CCCOc1ccc2c(Nc3cc(CC(=O)Nc4cccc(F)c4)[nH]n3)ncnc2c1 [AZD2811]
Conditions: max 1 µM. The essentials: as §1

Compound in experiment [10]: CCc1c2c(nc3ccc(O)cc13)-c1cc3c(c(=O)n1C2)COC(=O)[C@]3(O)CC [SN-38]
As to conditions: max 0.3 µM. The procedure, abridged: as §1

Compound in experiment [11]: CN(C)CCCOc1ccc(-c2ccc3ncc4c(c3c2)n(C2CCOCC2)c(=O)n4C)cn1 [AZD0156]
The procedure, abridged:
as §1

Compound in experiment [12]: CN(CC[C@H](CSC1=CC=CC=C1)NC2=C(C=C(C=C2)S(=O)(=O)NC(=O)C3=CC=C(C=C3)N4CCC(CC4)[C@H](C5=CC=CC=C5C6=CC=C(C=C6)Cl)O)S(=O)(=O)C(F)(F)F)CCO [AZD4320]
As to conditions: max 1 µM. The essentials:
as §1

Compound in experiment [13]: COc1cc(Nc2ncc3c(n2)-c2ccc(Cl)cc2C(c2c(F)cccc2OC)=NC3)ccc1C(=O)O [Alisertib]
Conditions: max 10 µM. The procedure, abridged:
as §1

Compound in experiment [14]: COc1cc2ncnc(Nc3ccc(F)c(Cl)c3)c2cc1OCCCN1CCOCC1 [Gefitinib]
Conditions: max 10 µM. The procedure, abridged:
as §1

Compound in experiment [15]: COc1cccc(OCCCN)c1-c1cc(Nc2cnc(C#N)cn2)n[nH]1 [Prexasertib]
As to conditions: max 1 µM. The essentials: as §1

Compound in experiment [16]: COc1cccc2c1C(=O)c1c(O)c3c(c(O)c1C2=O)C[C@@](O)(C(=O)CO)C[C@@H]3O[C@H]1C[C@H](N)[C@H](O)[C@H](C)O1 [Doxorubicin]
Conditions: max 1 µM. The essentials: as §1

Compound in experiment [17]: COc1nnc2ccc(N3CCC(c4ccc(OCCN5CCN(C)C(=O)[C@H]5C)cc4)CC3)nn12 [AZD5153]
As to conditions: max 1 µM. The essentials:
as §1

Compound in experiment [18]: CS(=O)(=O)CCNCc1ccc(-c2ccc3ncnc(Nc4ccc(OCc5cccc(F)c5)c(Cl)c4)c3c2)o1 [Lapatinib]
Conditions: max 10 µM. The essentials:
as §1

Compound in experiment [19]: C[C@@H](Nc1cc(F)cc(F)c1)c1cc(C(=O)N(C)C)cc2c(=O)cc(N3CCOCC3)oc12 [AZD8186]
As to conditions: max 3 µM. The essentials: as §1

Compound in experiment [20]: C[C@@H](Oc1cc(-c2cnn(C3CCNCC3)c2)cnc1N)c1c(Cl)ccc(F)c1Cl [Crizotinib]
Conditions: max 10 µM. The procedure, abridged: as §1

Compound in experiment [21]: C[C@@H](c1ccc2nccn2c1)n1nnc2ncc(-c3cnn(C)c3)nc21 [Savolitinib]
Conditions: max 1 µM. The procedure, abridged:
as §1

Compound in experiment [22]: C[C@@H]1COCCN1C2=NC(=NC(=C2)C3(CC3)[S@](=N)(=O)C)C4=C5C=CNC5=NC=C4 [AZD6738]
As to conditions: max 10 µM. The essentials: as §1

Compound in experiment [23]: Cc1c2c(nn1C)CSCc1cc(n(C)n1)CSc1cc(c3ccccc3c1)OCCCc1c(C(=O)O)n(C)c3c-2c(Cl)ccc13 [AZD5991]
As to conditions: max 1 µM. The procedure, abridged:
as §1

Compound in experiment [24]: Cc1cc2ncnn2cc1Nc1ncc2c(n1)n(C1CCOCC1)c(=O)n2C [AZD7648]
Conditions: max 10 µM. The essentials: as §1

Compound in experiment [25]: Cc1nc(-c2cn3c(n2)-c2ccc(-c4cnn(C(C)(C)C(N)=O)c4)cc2OCC3)n(C(C)C)n1 [Taselisib]
As to conditions: max 10 µM. The essentials: as §1

Compound in experiment [26]: Cn1cnc2c(F)c(Nc3ccc(Br)cc3Cl)c(C(=O)NOCCO)cc21 [Selumetinib]
The procedure, abridged:
as §1

Compound in experiment [27]: O=C(c1cc(Cc2n[nH]c(=O)c3ccccc23)ccc1F)N1CCN(C(=O)C2CC2)CC1 [Olaparib]
As to conditions: max 10 µM. The procedure, abridged:
as §1

Consider EFM-192A (Breast Carcinoma), for which the “IC50, cell viability 72 h” value in experiment [1] (max 10 µM) is greater than 10 µM; in [2] (max 3 µM), greater than 3 µM; in experiment [3], greater than 1 µM; in [4], greater than 10 µM; in [5] it was greater than 0.3 µM; in experiment [6], greater than 1 µM. Further, the “IC50, cell viability 72 h” value was greater than 2 µM in [7]; greater than 0.001 µM in [8]; greater than 1 µM in experiment [9]; greater than 0.3 µM in experiment [10]; greater than 3 µM in experiment [11] (max 3 µM); greater than 1 µM in [12]. Besides, the “IC50, cell viability 72 h” value in [13] is greater than 10 µM; in [14], greater than 10 µM; in experiment [15] it was greater than 1 µM; in [16], greater than 1 µM; in experiment [17] it was greater than 1 µM; in [18] it was 1.36 µM. In addition, the “IC50, cell viability 72 h” value in [19] was greater than 3 µM; in [20], greater than 10 µM; in [21], greater than 1 µM; in experiment [22], greater than 10 µM; in experiment [23], 0.706 µM; in experiment [24], greater than 10 µM. The “IC50, cell viability 72 h” value in experiment [25] was 0.475 µM; in experiment [26] (max 10 µM) it was greater than 10 µM; in [27], greater than 10 µM.
For the cell line EKVX (Non-Small Cell Lung Carcinoma), the “IC50, cell viability 72 h” value is greater than 3 µM in experiment [1] (max 3 µM); greater than 1 µM in experiment [2] (max 1 µM); 0.747 µM in experiment [3]; greater than 1 µM in experiment [6]; greater than 0.001 µM in experiment [8]; greater than 1 µM in experiment [9]. The “IC50, cell viability 72 h” value in experiment [10] is greater than 0.3 µM; in experiment [11] (max 1 µM) it was greater than 1 µM; in [12] it was greater than 1 µM; in experiment [13], greater than 10 µM; in [15], greater than 1 µM; in experiment [16] it was greater than 1 µM. Also, the “IC50, cell viability 72 h” value is greater than 3 µM in experiment [19]; greater than 10 µM in [22]; greater than 1 µM in [23]; greater than 10 µM in experiment [24]; greater than 10 µM in experiment [25]; greater than 3 µM in experiment [26] (max 3 µM). Moreover, the “IC50, cell viability 72 h” value in experiment [27] is greater than 10 µM.
